Data taken from patent US6875452B1, “Inhibitor and preservative formulation” (priority 1997, dated 2005).

Key:
[1] = test system: Salmonella enteriditis 4444; assay: Viable count of S. enteriditis in TSB with plant oils, benzoic acid, methyl paraben and combinations (Experimental Procedure 1); assay type: cell-based; conditions: for log10 of the mean count: 37° C.; for inhibition of S. enteriditis in words: over the 48 hr period
Protocol: (§1) Listeria monocytogenes 11994 and Salmonella […] 4444 were purchased from the National Collection Type Culture, Porton Down, Wiltshire, UK. Each was stored in the long term in glycerol at -20° C., in the medium term on Tryptone Soya Agar (TSA) slopes and in the short term on TSA plates. All agar and broth (Tryptone Soya Broth) was purchased from Oxoid-Unipath Limited, Basingstoke, UK. […] Plates were incubated at 37° C. and colonies counted as colony forming units per ml (cfu/ml). […] Oils of fennel and […] used at 0.2% and whilst oil of basil was originally used for comparative purposes at 0.2% it was later used at 0.02%. […] Several factors were considered when choosing these concentrations. […] Triplicate plates were prepared for each dilution and the mean count of three plates was determined. […] Each experiment was performed on three separate occasions. It is the mean count from three separate experiments and the corresponding standard error of the mean which are shown in the results section. Two-tailed paired student's t-test was used to analyse inhibition caused by a combination compared to the corresponding control. Differences were judged to be statistically significant when p<0.05.

[2] = test system: Listeria monocytogenes 11994; assay: Viable count of L. monocytogenes in TSB with plant oils, benzoic acid, methyl paraben and combinations (Experimental Procedure 1); assay type: cell-based; conditions: for log10 of the mean count: 37° C.; for inhibition of L. monocytogenes in words: over the 48 hr period
Protocol: as §1

[3] = test system: Salmonella enteriditis 4444; assay: Viable count of S. enteriditis in TSB with trans-anethole, fenchone, estragole, methyl paraben and combinations (Experimental Procedure 2); assay type: cell-based; conditions: for inhibition of S. enteriditis in words: 0.1%, over the 48 hr period; for log10 of the mean count ± 1 SEM: 37° C., preservatives at 0.1%
Protocol: (§2) Listeria monocytogenes 11994 and Salmonella enteriditis 4444 were purchased from the National Collection Type Culture, Porton Down, Wiltshire, UK. Each was stored in the long term in glycerol at −20° C., in the medium term on Tryptone Soya Agar (TSA) slopes and in the short term on TSA plates. All agar and broth (Tryptone Soya Broth) was purchased from Oxoid-Unipath Limited, Basingstoke, UK.
(§3) Triplicate plates were prepared for each dilution and the mean count of three plates was determined. […] Each experiment was performed on three separate occasions.
(§4) Two-tailed paired student's t-test was used to analyse inhibition caused by a combination compared to the corresponding control. Differences were judged to be statistically significant when p<0.05.
(§5) This definition is also in agreement with Mims et al.
(§6) Corresponding controls were also prepared, thus 10 μl of each overnight culture was added to the appropriate broth only. All tubes were incubated at 37° C. 1 ml samples were removed from each test and control after vortexing at 0 hrs, 1 hr, 4 hrs, 8 hrs, 24 hrs and 48 hrs and serially diluted in 0.01M PBS. 100 μl from each dilution was placed on an agar plate and spread across the surface. Plates were incubated at 37° C. and colonies counted as colony forming units per ml (cfu/ml). As ethanol was used to prepare stock solutions of methyl paraben a diluent control was used where ethanol was added to each culture medium. […] Due to the limitation of the serial dilution technique it was not possible to count cfu less than 10/ml.
(§7) Furthermore to make valid comparison about the activity of each combination against each microbe it was necessary to use just one concentration of each component with the combination. […] In addition, methyl paraben cannot be used in food in excess of 0.1% [15].

[4] = test system: Listeria monocytogenes 11994; assay: Viable count of L. monocytogenes in TSB with trans-anethole, fenchone, estragole, methyl paraben and combinations (Experimental Procedure 2); assay type: cell-based; conditions: for log10 of the mean count ± 1 SEM: 37° C., preservatives at 0.1%; for inhibition of L. monocytogenes in words: 0.1%, over 48 hrs
Protocol: as §2, §3, §4, §5, §6, §7

[5] = test system: mice; conditions: high doses, literature [22,23]; cited from earlier work
[6] = literature [20,21]; cited from earlier work
[7] = 0 hrs (starting count, same as control)

With `O=C(O)c1ccccc1` [BA, benzoic acid] the “log10 of the mean count” value [1, 7] was 6.08 ± 0.03 log10 cfu/ml, the “log10 of the mean count” value ([1]; 1 hr) was 6.02 ± 0.04 log10 cfu/ml and the “log10 of the mean count” value ([1]; 4 hrs) was 6.46 ± 0.01 log10 cfu/ml. For the same compound, the “log10 of the mean count” value ([1]; 8 hrs) was 7.32 ± 0.08 log10 cfu/ml, the “log10 of the mean count” value ([1]; 24 hrs) was 8.67 ± 0.14 log10 cfu/ml and the “log10 of the mean count” value ([1]; 48 hrs) was 8.52 ± 0.03 log10 cfu/ml. For the same compound, the “inhibition of S. enteriditis in words” value [1] was “little inhibition”, the “log10 of the mean count” value [2, 7] was 6.45 ± 0.02 log10 cfu/ml and the “log10 of the mean count” value ([2]; 1 hr) was 6.33 ± 0.11 log10 cfu/ml. For the same compound, the “log10 of the mean count” value ([2]; 4 hrs) was 7.22 ± 0.04 log10 cfu/ml, the “log10 of the mean count” value ([2]; 8 hrs) was 8.16 ± 0.06 log10 cfu/ml and the “log10 of the mean count” value ([2]; 24 hrs) was 9.09 ± 0.03 log10 cfu/ml. The “log10 of the mean count” value ([2]; 48 hrs) was 9.0 ± 0.06 log10 cfu/ml and the “inhibition of L. monocytogenes in words” value [2] was “relatively weakly inhibitory”.
For `C=CCc1ccc(OC)cc1` [Estragole, estragole (4-allylanisole)], the “inhibition of S. enteriditis in words” value [3] was “two most single inhibitory preservatives”, the “log10 of the mean count ± 1 SEM” value ([3]; 1 hr) was 2.2 ± 0.05Δ log10 cfu/ml and the “growth inhibited by” value ([3]; 4 hrs and 8 hrs) was “more than 5.0 log10”. The “log10 of the mean count ± 1 SEM” value ([3]; 4 hrs) was 1.6 ± 0.08Δ log10 cfu/ml, the “log10 of the mean count ± 1 SEM” value ([3]; 8 hrs) was 1.5 ± 0.08Δ log10 cfu/ml and the “log10 of the mean count ± 1 SEM” value ([3]; 24 hrs) was 4.3 ± 0.03Δ log10 cfu/ml. For the same compound, the inhibition ([3]; 48 hrs) was 2.1 log10, the “log10 of the mean count ± 1 SEM” value ([3]; 48 hrs) was 6.9 ± 0.03Δ log10 cfu/ml and the “log10 of the mean count ± 1 SEM” value ([4]; 1 hr) was 5.9 ± 0.05 log10 cfu/ml. The “log10 of the mean count ± 1 SEM” value ([4]; 4 hrs) was 5.6 ± 0.07Δ log10 cfu/ml, the “log10 of the mean count ± 1 SEM” value ([4]; 8 hrs) was 5.5 ± 0.06Δ log10 cfu/ml and the “log10 of the mean count ± 1 SEM” value ([4]; 24 hrs) was 4.9 ± 0.08Δ log10 cfu/ml. For the same compound, the “log10 of the mean count ± 1 SEM” value ([4]; 48 hrs) was 4.7 ± 0.09Δ log10 cfu/ml, the inhibition of growth ([4]; after 24 hrs) was “more than 4 log10” and the carcinogenicity in words [5] was “carcinogenic in high doses in mice”.
With `CC12CCC(C1)C(C)(C)C2=O` (stereo not shown) [Fenchone, fenchone] the “inhibition of S. enteriditis in words” value [3] was “little or no inhibition”, the “log10 of the mean count ± 1 SEM” value ([3]; 1 hr) was 5.8 ± 0.02 log10 cfu/ml and the “log10 of the mean count ± 1 SEM” value ([3]; 4 hrs) was 6.4 ± 0.04 log10 cfu/ml. For the same compound, the “log10 of the mean count ± 1 SEM” value ([3]; 8 hrs) was 6.9 ± 0.04Δ log10 cfu/ml, the “log10 of the mean count ± 1 SEM” value ([3]; 24 hrs) was 8.6 ± 0.09Δ log10 cfu/ml and the “log10 of the mean count ± 1 SEM” value ([3]; 48 hrs) was 8.5 ± 0.01Δ log10 cfu/ml. For the same compound, the toxicity in words [6] was “non-toxic”, the “inhibition of L. monocytogenes in words” value [4] was “most inhibitory single component” and the “log10 of the mean count ± 1 SEM” value ([4]; 1 hr) was 2.7 ± 0.2Δ log10 cfu/ml. The “log10 of the mean count ± 1 SEM” value ([4]; 4 hrs) was 1.9 ± 0.08Δ log10 cfu/ml, the “count (cells undetectable)” value ([4]; 8 hrs and above) was under 10 cfu/ml and the “log10 of the mean count ± 1 SEM” value ([4]; 8 hrs) was <1.0Δ log10 cfu/ml. The “log10 of the mean count ± 1 SEM” value ([4]; 24 hrs) was <0.1Δ log10 cfu/ml and the “log10 of the mean count ± 1 SEM” value ([4]; 48 hrs) was <1.0Δ log10 cfu/ml.
In the case of `COC(=O)c1ccc(O)cc1` [MP, methyl paraben], the “inhibition of S. enteriditis in words” value [3] is reported as “little or no inhibition”, the “log10 of the mean count ± 1 SEM” value ([3]; 1 hr) is reported as 6.0 ± 0.01 log10 cfu/ml and the “log10 of the mean count ± 1 SEM” value ([3]; 4 hrs) is reported as 6.3 ± 0.01 log10 cfu/ml. For the same compound, the “log10 of the mean count ± 1 SEM” value ([3]; 8 hrs) was 6.6 ± 0.06Δ log10 cfu/ml, the “log10 of the mean count ± 1 SEM” value ([3]; 24 hrs) was 8.5 ± 0.04Δ log10 cfu/ml and the “log10 of the mean count ± 1 SEM” value ([3]; 48 hrs) was 8.6 ± 0.01Δ log10 cfu/ml. The “log10 of the mean count” value [1, 7] was 6.08 ± 0.03 log10 cfu/ml, the “log10 of the mean count” value ([1]; 1 hr) was 6.04 ± 0.05 log10 cfu/ml and the “log10 of the mean count” value ([1]; 4 hrs) was 6.32 ± 0.03 log10 cfu/ml. For the same compound, the “log10 of the mean count” value ([1]; 8 hrs) was 6.63 ± 0.03 log10 cfu/ml, the “log10 of the mean count” value ([1]; 24 hrs) was 8.36 ± 0.05 log10 cfu/ml and the “log10 of the mean count” value ([1]; 48 hrs) was 8.45 ± 0.11 log10 cfu/ml. The “inhibition of S. enteriditis in words” value [1] was “little inhibition”, the “inhibition of L. monocytogenes in words” value [4] was “little or no inhibitory properties” and the “log10 of the mean count ± 1 SEM” value ([4]; 1 hr) was 6.5 ± 0.01 log10 cfu/ml. The “log10 of the mean count ± 1 SEM” value ([4]; 4 hrs) was 6.9 ± 0.01 log10 cfu/ml, the “log10 of the mean count ± 1 SEM” value ([4]; 8 hrs) was 7.7 ± 0.01 log10 cfu/ml and the “log10 of the mean count ± 1 SEM” value ([4]; 24 hrs) was 9.3 ± 0.01 log10 cfu/ml. For the same compound, the “log10 of the mean count ± 1 SEM” value ([4]; 48 hrs) was 9.2 ± 0.01 log10 cfu/ml, the “log10 of the mean count” value [2, 7] was 6.45 ± 0.02 log10 cfu/ml and the “log10 of the mean count” value ([2]; 1 hr) was 6.49 ± 0.01 log10 cfu/ml. For the same compound, the “log10 of the mean count” value ([2]; 4 hrs) was 7.02 ± 0.02 log10 cfu/ml, the “log10 of the mean count” value ([2]; 8 hrs) was 7.86 ± 0.05 log10 cfu/ml and the “log10 of the mean count” value ([2]; 24 hrs) was 9.27 ± 0.02 log10 cfu/ml. For the same compound, the “log10 of the mean count” value ([2]; 48 hrs) was 9.24 ± 0.02 log10 cfu/ml and the “inhibition of L. monocytogenes in words” value [2] was “relatively weakly inhibitory”.
For `C/C=C/c1ccc(OC)cc1` [Trans-anethole], the toxicity in words [6] is given as “non-toxic”, the “inhibition of L. monocytogenes in words” value [4] is given as “little or no inhibitory properties” and the “log10 of the mean count ± 1 SEM” value ([4]; 1 hr) is given as 6.1 ± 0.04 log10 cfu/ml. For the same compound, the “log10 of the mean count ± 1 SEM” value ([4]; 4 hrs) was 6.3 ± 0.1 log10 cfu/ml, the “log10 of the mean count ± 1 SEM” value ([4]; 8 hrs) was 6.7 ± 0.2 log10 cfu/ml and the “log10 of the mean count ± 1 SEM” value ([4]; 24 hrs) was 9.0 ± 0.1 log10 cfu/ml. The “log10 of the mean count ± 1 SEM” value ([4]; 48 hrs) was 9.0 ± 0.01 log10 cfu/ml.
